Laboratory results as given in patent publication US6087119A, “Method for determining the catalytic activity of factor IXa” (Roche Diagnostics GmbH, priority 1996, dated 2000).
Like-named read-outs stand apart in the source and are kept apart here.

Target: native FIXa (human) (Homo sapiens, UniProt P00740)
Conditions: MeSO2-D-HHT-Gly-Arg-pNA
Source text: Influence of the pH on the Activity of rFIXa and Native FIXa in the Presence of Ethylene Glycol
1.02 mmol/l MeSO2 -D-HHT-Gly-Arg-pNA, MOC-D-Nle-Gly-Arg-pNA or MeSO2 -D-CHG-Gly-Arg-pNA
0.14 μmol/l native FIXa (human)

Chain of native FIXa (human) (P00740 227-461 limits assumed): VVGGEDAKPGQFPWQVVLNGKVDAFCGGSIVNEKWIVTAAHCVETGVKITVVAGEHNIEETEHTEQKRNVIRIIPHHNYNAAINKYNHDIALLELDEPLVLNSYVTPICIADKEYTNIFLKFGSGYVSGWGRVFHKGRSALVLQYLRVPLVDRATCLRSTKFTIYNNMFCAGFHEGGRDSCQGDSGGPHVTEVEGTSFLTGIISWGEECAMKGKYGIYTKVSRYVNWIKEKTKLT
Chain of native FIXa (human) (P00740 47-191 partner limits assumed): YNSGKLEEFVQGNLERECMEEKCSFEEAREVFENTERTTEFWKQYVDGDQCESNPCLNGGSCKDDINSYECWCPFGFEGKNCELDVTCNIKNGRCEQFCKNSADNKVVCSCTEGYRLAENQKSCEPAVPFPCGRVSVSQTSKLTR

OCCO [Ethylene glycol]
cleavage rate mA/min (pH 7.0, 25% ethylene glycol): 23.7 mA/min | cleavage rate mA/min (pH 7.5, 25% ethylene glycol): 63.0 mA/min | cleavage rate mA/min (pH 8.0, 25% ethylene glycol): 101.0 mA/min | cleavage rate mA/min (pH 8.25, 25% ethylene glycol): 106.7 mA/min | cleavage rate mA/min (pH 8.5, 25% ethylene glycol): 115.4 mA/min | cleavage rate mA/min (pH 8.75, 25% ethylene glycol): 110.9 mA/min | cleavage rate mA/min (pH 9.0, 25% ethylene glycol): 105.6 mA/min | cleavage rate mA/min (pH 9.5, 25% ethylene glycol): 100.6 mA/min | cleavage rate mA/min (pH 10.0, 25% ethylene glycol): 77.2 mA/min
